Data published in PubChem BioAssay AID2060604 (Molecular Pharmacology Branch, DTP, NCI, 2025).
Values joined by “and” are separate entries in the source; they are usually repeats but may differ in a detail not shown here. Equal values may be shown once. One block for each molecule: values may come before it.

Tested on: 379773-124-R-J2-PDC complex spheroids, viability % test/control
Test: Anticancer human tumor 379773-124-R-J2-PDC patient-derived endometrial carcinoma cell line growth inhibition [CLK]
Settings: for viability, T/C: stronger effect = lower value
From the text: A high-throughput screen of multi-cell type tumor spheroids was designed to identify active combinations of […] and targeted small molecules. Complex spheroids include a stromal component modeled by human endothelial cells (HUVEC) and fibroblasts modeled by human mesenchymal stem cells (MSCs). The concentration ranges selected for each drug and investigational agent were based upon clinically achievable concentrations if the clinical Cmax of the agent was known.
Compounds. The drugs and investigational agents: cirtuvivint (SM08502; NSC835563), CC-671 (NSC850746), vemurafenib (NSC761431), tapotoclax (NSC804041), sotorasib (NSC818433), adagrasib (NSC831453), MRTX-1133 (NSC836407), BAY2416964 (NSC825713), copanlisib (NSC816437), inavolisib (NSC800729), abemaciclib (NSC768073), osimertinib (NSC779217), entinostat (NSC756642), eltanexor (KPT-8602, NSC794443), venetoclax (NSC766270), ceralasertib (NSC777638), bortezomib (NSC756655), olaparib (NSC753686), talazoparib (NSC767125), alisertib (NSC759677), peposertib (NSC802822), gemcitabine (NSC613327), 5-fluorouracil (NSC19893), SN-38 (NSC673596), oxaliplatin (NSC266046), paclitaxel (NSC125973), and doxorubicin (NSC123127), were obtained from the National Cancer Institute (NCI) Developmental Therapeutics Program Chemical Repository. The FDA-approved anticancer drug set is available from the Developmental Therapeutics Program at https://dtp.cancer.gov/organization/dscb/obtaining/available plates.htm. […] The stock solutions were prepared in dimethyl sulfoxide (DMSO, Sigma-Aldrich, St. Louis, MO, cat. D2650), except for the platinum complexes which were prepared in saline (Quality Biological, Gaithersburg, MD, cat. 114-055-101), at 800-fold the tested concentration and stored at -70 degrees C prior to their use. All drugs and investigational agents were tested over a range starting from a high concentration at or near the clinical Cmax and decreasing in half-log increments. If the clinical Cmax for an agent had not been determined, the highest concentration tested was 10 microM.
Cell Culture. All cells were maintained in an incubator at 37 degrees C and 5% CO2 with 95% humidity. The PDC lines were cultured according to standard operating procedures established by the NCI PDMR. Briefly, all PDCs were thawed and cultured in Matrigel-coated flasks prepared with a working solution of 1X Ham's F-12 nutrient mix, without supplementation (Invitrogen, Waltham, MA, cat. 11765054), 100 U/mL penicillin-streptomycin (Invitrogen, cat. 15140122), and 2.5% Matrigel (Corning Inc., Corning, NY, cat. 354248) for the first three passages. The 947758-054-R-J2-PDC line was cultured in 6B/Colon 1A media, which includes advanced DMEM/F-12 (Thermo Fisher Scientific, cat. 12634028), 10 mM HEPES (Thermo Fisher Scientific, cat. 15630080), 1X GlutaMAX supplement (Thermo Fisher Scientific, cat. 35050061), 0.1 mg/mL primocin (InvivoGen, cat. ant-pm-2), 10% defined fetal bovine serum, heat inactivated (HyClone Laboratories Inc., cat. SH30070.03HI), 1.25 mM N-Acetyl-L-cysteine (Sigma-Aldrich, cat. A9165), 10 mM nicotinamide (Sigma-Aldrich, cat. N0636), 1X B-27 supplement (Thermo Fisher Scientific, cat. 17504044), 1X N-2 supplement (Thermo Fisher Scientific, cat. 17502048), and 10 microM Y-27632 dihydrochloride (Tocris Bioscience, cat. 1254). The 876862-298-R-J1-PDC was cultured in 6E media, which includes all 6B/Colon 1A media components plus 50% L-WRN conditioned media (ATCC, cat. CRL-3276), 50 ng/mL recombinant human EGF recombinant protein (hEGF; Thermo Fisher Scientific, cat. PHG0311), 10 ng/mL recombinant human fibroblast growth factor 10 (hGFG-10; PeproTech, cat. 100-26), 1 ng/mL recombinant human fibroblast growth factor 2 (hFGF-2; PeproTech, cat. 100-18B), and 1 µM prostaglandin E2 (PGE2; Tocris, cat. 2296). The 227483-062-R1-J1-PDC line was cultured in Panc media, containing all 6E components except hFGF-2, with the addition of 500 nM SB-431542 (Selleckchem, cat. S1067) and 10 nM gastrin (Tocris, cat. 3006). […]

[1] = curve of first compound, second compound 0.0316 µM
[2] = curve of first compound, second compound 0.1 µM
[3] = curve of first compound, second compound 0.316 µM
[4] = curve of first compound, second compound 1 µM
[5] = curve of first compound, second compound 3.16 µM
[6] = curve of first compound, second compound 10 µM
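Further: compound exposure lasted seven days before the viability readout.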
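Wherever viability, T/C is given: 100% = DMSO vehicle control wells.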

IC50 [1]: < 31.6 nM
IC50 [2]: < 31.6 nM
IC50 [3]: < 31.6 nM
IC50 [4]: < 31.6 nM
IC50 [5]: < 31.6 nM
IC50 [6]: < 31.6 nM
SMILES: CC(=O)O[C@H]1C(=O)[C@@]2(C)[C@H]([C@H](OC(=O)c3ccccc3)[C@]3(O)C[C@H](OC(=O)[C@H](O)[C@@H](NC(=O)c4ccccc4)c4ccccc4)C(C)=C1C3(C)C)[C@]1(OC(C)=O)CO[C@@H]1C[C@@H]2O + CNC(=O)c1ccc(Nc2nc(OC3CCCC3)c3c(-c4ccc5nc(C)oc5c4)c[nH]c3n2)c(OC)c1
viability, T/C (second compound 0.0316 µM, first compound 0.0316 µM): 9.1%
viability, T/C (second compound 0.0316 µM, first compound 0.1 µM): 12.2%
viability, T/C (second compound 0.0316 µM, first compound 0.316 µM): 13.4%
viability, T/C (second compound 0.0316 µM, first compound 1 µM): 9.72%
viability, T/C (second compound 0.0316 µM, first compound 3.16 µM): 15.4%
viability, T/C (second compound 0.0316 µM, first compound 10 µM): 17.7%
viability, T/C (second compound 0.1 µM, first compound 0.0316 µM): 24.6%
viability, T/C (second compound 0.1 µM, first compound 0.1 µM): 28.4%
viability, T/C (second compound 0.1 µM, first compound 0.316 µM): 28.9%
viability, T/C (second compound 0.1 µM, first compound 1 µM): 34.6%
viability, T/C (second compound 0.1 µM, first compound 3.16 µM): 25%
viability, T/C (second compound 0.1 µM, first compound 10 µM): 33.2%
viability, T/C (second compound 0.316 µM, first compound 0.0316 µM): 27.6%
viability, T/C (second compound 0.316 µM, first compound 0.1 µM): 24.8%
viability, T/C (second compound 0.316 µM, first compound 0.316 µM): 33.2%
viability, T/C (second compound 0.316 µM, first compound 1 µM): 33.3%
viability, T/C (second compound 0.316 µM, first compound 3.16 µM): 32.2%
viability, T/C (second compound 0.316 µM, first compound 10 µM): 27.7%
viability, T/C (second compound 1 µM, first compound 0.0316 µM): 30%
viability, T/C (second compound 1 µM, first compound 0.1 µM): 28.4%
viability, T/C (second compound 1 µM, first compound 0.316 µM): 33.6%
viability, T/C (second compound 1 µM, first compound 1 µM): 36%
viability, T/C (second compound 1 µM, first compound 3.16 µM): 29.2%
viability, T/C (second compound 1 µM, first compound 10 µM): 37.7%
viability, T/C (second compound 3.16 µM, first compound 0.0316 µM): 30%
viability, T/C (second compound 3.16 µM, first compound 0.1 µM): 27.3%
viability, T/C (second compound 3.16 µM, first compound 0.316 µM): 28.9%
viability, T/C (second compound 3.16 µM, first compound 1 µM): 25.5%
viability, T/C (second compound 3.16 µM, first compound 3.16 µM): 26.4%
viability, T/C (second compound 3.16 µM, first compound 10 µM): 31.8%
viability, T/C (second compound 10 µM, first compound 0.0316 µM): 29.1%
viability, T/C (second compound 10 µM, first compound 0.1 µM): 33.5%
viability, T/C (second compound 10 µM, first compound 0.316 µM): 31.6%
viability, T/C (second compound 10 µM, first compound 1 µM): 35.1%
viability, T/C (second compound 10 µM, first compound 3.16 µM): 30.7%
viability, T/C (second compound 10 µM, first compound 10 µM): 36.1%

IC50 (curve of compound): 67.6 nM and 30.5 nM
SMILES: Cn1ncnc1[C@H]1c2n[nH]c(=O)c3cc(F)cc(c23)N[C@@H]1c1ccc(F)cc1
viability, T/C (compound 0.000316 µM): 97.3% and 82.2%
viability, T/C (compound 0.001 µM): 100% and 79.8%
viability, T/C (compound 0.00316 µM): 86.3% and 79.5%
viability, T/C (compound 0.01 µM): 86.8% and 79.1%
viability, T/C (compound 0.0316 µM): 72.3% and 49%
viability, T/C (compound 0.1 µM): 38.9% and 26.1%

IC50 [1]: 1.54 nM
IC50 [2]: < 0.949 nM
IC50 [3]: < 0.949 nM
IC50 [4]: < 0.949 nM
IC50 [5]: < 0.949 nM
IC50 [6]: < 0.949 nM
SMILES: CC(C)CC(NC(=O)C(Cc1ccccc1)NC(=O)c1cnccn1)B(O)O (stereo unspecified) + CNC(=O)c1ccc(Nc2nc(OC3CCCC3)c3c(-c4ccc5nc(C)oc5c4)c[nH]c3n2)c(OC)c1
viability, T/C (second compound 0.0316 µM, first compound 0.000949 µM): 81.6%
viability, T/C (second compound 0.0316 µM, first compound 0.003 µM): 6.67%
viability, T/C (second compound 0.0316 µM, first compound 0.00949 µM): 0.17%
viability, T/C (second compound 0.0316 µM, first compound 0.03 µM): 0.19%
viability, T/C (second compound 0.0316 µM, first compound 0.0949 µM): 0.13%
viability, T/C (second compound 0.0316 µM, first compound 0.3 µM): 0.1%
viability, T/C (second compound 0.1 µM, first compound 0.000949 µM): 33.4%
viability, T/C (second compound 0.1 µM, first compound 0.003 µM): 3.4%
viability, T/C (second compound 0.1 µM, first compound 0.00949 µM): 0.32%
viability, T/C (second compound 0.1 µM, first compound 0.03 µM): 0.13%
viability, T/C (second compound 0.1 µM, first compound 0.0949 µM): 0.12%
viability, T/C (second compound 0.1 µM, first compound 0.3 µM): 0.09%
viability, T/C (second compound 0.316 µM, first compound 0.000949 µM): 42.3%
viability, T/C (second compound 0.316 µM, first compound 0.003 µM): 1.94%
viability, T/C (second compound 0.316 µM, first compound 0.00949 µM): 0.13%
viability, T/C (second compound 0.316 µM, first compound 0.03 µM): 0.1%
viability, T/C (second compound 0.316 µM, first compound 0.0949 µM): 0.08%
viability, T/C (second compound 0.316 µM, first compound 0.3 µM): 0.08%
viability, T/C (second compound 1 µM, first compound 0.000949 µM): 31.1%
viability, T/C (second compound 1 µM, first compound 0.003 µM): 1.88%
viability, T/C (second compound 1 µM, first compound 0.00949 µM): 0.11%
viability, T/C (second compound 1 µM, first compound 0.03 µM): 0.1%
viability, T/C (second compound 1 µM, first compound 0.0949 µM): 0.08%
viability, T/C (second compound 1 µM, first compound 0.3 µM): 0.08%
viability, T/C (second compound 3.16 µM, first compound 0.000949 µM): 30.1%
viability, T/C (second compound 3.16 µM, first compound 0.003 µM): 0.38%
viability, T/C (second compound 3.16 µM, first compound 0.00949 µM): 0.11%
viability, T/C (second compound 3.16 µM, first compound 0.03 µM): 0.09%
viability, T/C (second compound 3.16 µM, first compound 0.0949 µM): 0.1%
viability, T/C (second compound 3.16 µM, first compound 0.3 µM): 0.13%
viability, T/C (second compound 10 µM, first compound 0.000949 µM): 33.1%
viability, T/C (second compound 10 µM, first compound 0.003 µM): 0.42%
viability, T/C (second compound 10 µM, first compound 0.00949 µM): 0.13%
viability, T/C (second compound 10 µM, first compound 0.03 µM): 0.11%
viability, T/C (second compound 10 µM, first compound 0.0949 µM): 0.16%
viability, T/C (second compound 10 µM, first compound 0.3 µM): 0.12%
